Experimental data published in patent US11180452B2, “Methods and compositions for selectively inhibiting pathogenic microbes” (priority 2019, dated 2021).
Converted amounts (≈) assume the structure as drawn. Where two headings read alike, the source gives them in different places.

Key:
Format in all cases: cell-based
Bacillus thuringiensis = conditions: for MIC: Bacillus thuringiensis
Trichophyton rubrum = test: MIC against Trichophyton rubrum; conditions: Trichophyton rubrum Castellani Sabouraud ATCC: 28188; read-out: MIC
[1] = test system: Francisella tularensis subsp. Holarctica Strain LVSR NR-597; test: microbe, parasite or virus in culture
Candida glabrata = Candida glabrata MIC / MFC; conditions: Nakaseomyces glabratus
Bacillus subtilis = Bacillus subtilis MIC / MBC; conditions: for MBC: Bacillus subtilis NRRL: B-571, minimum bactericidal concentration; for MIC: Bacillus subtilis
[2] = test system: Burkholderia thailandensis Brett et al ATCC: 700388; test: microbe, parasite or virus in culture
C. albicans = test: Candida albicans MIC / MFC
[3] = Bacillus thuringiensis Berliner ATCC: 10792
[4] = Bacillus thuringiensis Berliner ATCC: 10792, read-out: MIC
[5] = Candida glabrata #584 (Table 2), read-out: MIC
[6] = Bacillus subtilis (Ehrenberg 1835) Cohn 1872 NRRL: B-571, read-out: MIC
[7] = C. albicans strain #761, read-out: MIC
[8] = C. albicans strain #762, read-out: MIC
[9] = C. glabrata strain #325, read-out: MIC
[10] = C. glabrata strain #584 (Table 7), read-out: MIC
[11] = Candida glabrata #584 (Table 2), minimum fungicidal concentration, read-out: MFC

SMILES	MBC (Bacillus thuringiensis; [3]) [µg/mL]	MIC (Bacillus thuringiensis; [4]) [µg/mL]	MIC (Trichophyton rubrum) [µg/mL]	MIC [1] [µg/mL]	MIC (Candida glabrata; [5]) [µg/mL]	MBC (Bacillus subtilis) [µg/mL]	MIC (Bacillus subtilis; [6]) [µg/mL]	MIC [2] [µg/mL]	other results
[O-][S+](c1ccc(Br)cc1)c1c[nH]c2ccc(Br)cc12 (centres unmarked) [Compound 172I, 5-bromo-3-((4-bromophenyl)sulfinyl)-1H-indole]	40 (≈ 100 µM)	10 (≈ 25.1 µM)	9.92 (≈ 24.9 µM)	20 (≈ 50.1 µM)	> 40	10 (≈ 25.1 µM)	10 (≈ 25.1 µM)		
Brc1ccc2[nH]cc(Sc3nc4ccccc4s3)c2c1 [Compound 174L, 2-((5-bromo-1H-indol-3-yl)thio)benzo[d]thiazole]	50 (≈ 138 µM)	1.56 (≈ 4.32 µM)	> 18		> 50	> 50	1.56 (≈ 4.32 µM)	> 50	
Brc1ccc2[nH]cc(Sc3ccc4ccccc4c3)c2c1 [Compound 174S, 5-bromo-3-(naphthalen-2-ylthio)-1H-indole]		> 50	> 8.82		> 50		> 50	> 50	
Brc1ccc(Sc2c[nH]c3cc(Br)c(Br)cc23)cc1 [Compound 174AB, 5,6-dibromo-3-((4-bromophenyl)thio)-1H-indole]	8 (≈ 17.3 µM)	2 (≈ 4.33 µM)		4 (≈ 8.66 µM)	3.13 (≈ 6.77 µM)	16 (≈ 34.6 µM)	4 (≈ 8.66 µM)	> 50	MIC (Bacillus thuringiensis; strain B-1596): 4 µg/mL (≈ 8.66 µM); MIC (C. albicans; [7]): > 50 µg/mL; MIC (C. albicans; [8]): > 50 µg/mL; MIC (Candida glabrata; [9]): > 50 µg/mL; MIC (Candida glabrata; [10]): 3.13 µg/mL (≈ 6.77 µM); MIC (Bacillus subtilis; strain B-1985, read-out: Bacillus subtilis MIC): 4 µg/mL (≈ 8.66 µM); MIC (Bacillus subtilis; strain B-3665, read-out: Bacillus subtilis MIC): 2 µg/mL (≈ 4.33 µM); MIC (Bacillus subtilis; strain B-14322, read-out: Bacillus subtilis MIC): 2 µg/mL (≈ 4.33 µM); MIC (Bacillus subtilis; strain B-41090, read-out: Bacillus subtilis MIC): 4 µg/mL (≈ 8.66 µM); MIC (Bacillus subtilis; strain B-41581, read-out: Bacillus subtilis MIC): 2 µg/mL (≈ 4.33 µM); MIC (Bacillus subtilis; strain BD-594, read-out: Bacillus subtilis MIC): 4 µg/mL (≈ 8.66 µM)
Fc1ccc2c(Sc3ccc(Br)cc3)c[nH]c2c1 [Compound 172A, 3-((4-bromophenyl)thio)-6-fluoro-1H-indole]	1.56 (≈ 4.84 µM)	1.56 (≈ 4.84 µM)	9.52 (≈ 29.5 µM)	0.78 (≈ 2.42 µM)	1.56 (≈ 4.84 µM)	> 50	1.56 (≈ 4.84 µM)	> 50	MFC (C. albicans; C. albicans strain #761): 12.5 µg/mL (≈ 38.8 µM); MIC (C. albicans; C. albicans strain #761): 3.13 µg/mL (≈ 9.71 µM); MFC (C. albicans; C. albicans strain #762): 6.25 µg/mL (≈ 19.4 µM); MIC (C. albicans; C. albicans strain #762): 1.56 µg/mL (≈ 4.84 µM); MFC (Candida glabrata; C. glabrata strain #325): 12.5 µg/mL (≈ 38.8 µM); MIC (Candida glabrata; C. glabrata strain #325): 6.25 µg/mL (≈ 19.4 µM); MFC (Candida glabrata; [11]): 3.13 µg/mL (≈ 9.71 µM)
Brc1ccc(Sc2c[nH]c3cc(Br)cc(Br)c23)cc1 [Compound 174AE, 4,6-dibromo-3-((4-bromophenyl)thio)-1H-indole]	> 50	2 (≈ 4.33 µM)		4 (≈ 8.66 µM)	25 (≈ 54.1 µM)	4 (≈ 8.66 µM)	2 (≈ 4.33 µM)	> 50	MFC (C. albicans; C. albicans strain #761, read-out: MFC): > 50 µg/mL; MIC (C. albicans; [7]): 50 µg/mL (≈ 108 µM); MFC (C. albicans; C. albicans strain #762, read-out: MFC): 25 µg/mL (≈ 54.1 µM); MIC (C. albicans; [8]): 6.25 µg/mL (≈ 13.5 µM); MFC (Candida glabrata; C. glabrata strain #325, read-out: MFC): > 50 µg/mL; MIC (Candida glabrata; [9]): 12.5 µg/mL (≈ 27.1 µM); MIC (Candida glabrata; [10]): 25 µg/mL (≈ 54.1 µM)
Brc1ccc(Sc2[nH]c3ccccc3c2Sc2ccc(Br)cc2)cc1 [Compound 156P, 2,3-bis((4-bromophenyl)thio)-1H-indole]	> 50	3.13 (≈ 6.37 µM)	6.11 (≈ 12.4 µM)	> 50	> 50	> 50	12.5 (≈ 25.4 µM)		
Cc1c(Sc2ccc(Br)cc2)[nH]c2ccccc12 [Compound 172B, 2-((4-bromophenyl)thio)-3-methyl-1H-indole]	25 (≈ 78.6 µM)	6.25 (≈ 19.6 µM)	15.6 (≈ 49 µM)	3.13 (≈ 9.84 µM)	50 (≈ 157 µM)	25 (≈ 78.6 µM)	6.25 (≈ 19.6 µM)		
Clc1ccc(Sc2c[nH]c3ccc(Br)cc23)cc1Cl [Compound 174W, 5-bromo-3-((3,4-dichlorophenyl)thio)-1H-indole]	5 (≈ 13.4 µM)	1.25 (≈ 3.35 µM)	1.16 (≈ 3.11 µM)		25 (≈ 67 µM)	> 10	1.25 (≈ 3.35 µM)	> 50	MIC (C. albicans; [7]): > 50 µg/mL; MIC (C. albicans; [8]): > 50 µg/mL; MIC (Candida glabrata; [9]): > 50 µg/mL; MIC (Candida glabrata; [10]): 25 µg/mL (≈ 67 µM)
COC(=O)c1ccc2[nH]cc(Sc3ccc(Br)cc3)c2c1 [Compound 172G, methyl 3-((4-bromophenyl)thio)-1H-indole-5-carboxylate]	> 45	11.3 (≈ 31.2 µM)	18.1 (≈ 50 µM)		> 50	45 (≈ 124 µM)	11.3 (≈ 31.2 µM)		
COc1ccc(Sc2c[nH]c3ccc(Br)cc23)cc1 [Compound 174Q, 5-bromo-3-((4-methoxyphenyl)thio)-1H-indole]	12.5 (≈ 37.4 µM)	1.56 (≈ 4.67 µM)	2.08 (≈ 6.22 µM)		3.13 (≈ 9.36 µM)	> 50	1.56 (≈ 4.67 µM)	> 50	MFC (Candida glabrata; [11]): > 50 µg/mL
Clc1cccc(Sc2c[nH]c3ccc(Br)cc23)c1Cl [Compound 174T, 5-bromo-3-((2,3-dichlorophenyl)thio)-1H-indole]	2.5 (≈ 6.7 µM)	1.25 (≈ 3.35 µM)	1.16 (≈ 3.11 µM)		3.13 (≈ 8.39 µM)	> 10	1.25 (≈ 3.35 µM)	> 50	MFC (Candida glabrata; [11]): 25 µg/mL (≈ 67 µM)
